Source: patent US20240197733A1, “A GABA RECEPTOR MODULATOR FOR USE IN THE TREATMENT OF PAIN” (SANIONA A/S, priority 2021, published 2024)

Experiments:
[1] = tested on: electrocutaneous stimulation-induced facial pain rodent model; test: ES-induced facial pain model, cold thermal allodynia (acetone test), prophylactic and acute treatment; format: in vivo, Sprague-Dawley rats; conditions: for development of cold allodynia vs vehicle: day 9 at 0 time
Protocol: Cold Thermal threshold was assessed by measuring each rat's facial withdrawal latency (seconds) in response to a single 10 uL drop of acetone directly on the depilated and stimulated rat cheek. Cutoff was set at 60 seconds. Facial withdrawal response criteria were as following: burrowing head, shaking of head back-and-forth, excessive blinking, turning head away from experimenter. Unless stated otherwise, the same materials, methods, and provisions of Example 1 were applied to Example 2. The required quantity of the compound is weighed and dissolved in 100% DMSO in a volume amounting to 5% of the total volume while placed on a stirrer. The weight of the compounds refers to the free base weights. Once the solution becomes clear/transparent, the remaining volume of the vehicle is added (30% HPBCD prepared in MQ water) to final concentrations of 0.03, 0.1, and 0.3 mg/ml for Compound 1. The solutions are kept on a stirrer before- and during administration of the compounds to the animals. The experimenter assessing the behavioral responses to drug administration is blinded to the drug treatment to the animals. Each treatment group is coded according the scheme below: • A. Vehicle (5% DMSO+30% HPBCD): 10 ml/kg • B. Compound 1: 0.3 mg/kg • C. Compound 1: 1 mg/kg • D. Compound 1: 3 mg/kg • F. Compound 1: 3 mg/kg—acute Second baseline measurement was carried out similarly to day 1, For each animal, the average of the two baseline nociceptive measurements was calculated within each pain modality (mechanical, heat- and cold pain), and used as baseline (“Baseline” point on figures). Then all rats in the above respective group (A-D) are given treated as mentioned. Group F received vehicle treatment. Treatment is continued once daily to each group same as Day 2 All rats were treated with respective treatment as per day 3-7. After 1 hr of treatment, each rat was subjected to 1 hr of electrocutaneous stimulation at depilated cheek (0.4 mA intensity, 10 ms duration, 1 s inter-pulse interval). Similar to day 1- and 2, all rats were acclimatized to test equipment followed by measurements of ES-induced facial mechanical- heat- and cold allodynia (“0” time point on figures). After measurement of hypersensitivity threshold, rats from group A-D received the vehicle and three doses of Compound 1 as mentioned above while group F received single acute dose of 3 mg/kg of Compound 1. Treatment effects on pain thresholds were evaluated 2- and 4 hours after administration by assessing mechanical- (Von Frey) and thermal (heat and cold) withdrawal threshold.

[2] = tested on: electrocutaneous stimulation-induced facial pain rodent model; test: ES-induced facial pain model, acute treatment, overall conclusion (mechanical and thermal tests); format: in vivo, Sprague-Dawley rats; conditions: 1, 3 and 10 mg/kg po
Text: The electrocutaneous stimulation-induced facial pain rodent model is a reproducible orofacial pain model in which depilated cheek area of rats are repeatedly subjected to electrical stimulation. Repeated electrical stimulation at low intensities produces craniofacial pain that mimics the behavioral characteristics of TN such as development of mechanical and thermal allodynia at cheeks despite no visible edema, swelling or excessive injury and tissue damage. Male wild type, Sprague-Dawley rats (Charles River Laboratories) born in-house at […] Research Laboratory between May 24, 2020 to May 28, 2020. […] Compound 1, vehicle and Carbamazepine was administered perorally in doses of 1, 3, and 10 mg/kg (Compound 1) or 30 mg/kg (carbamazepine) and drug effects on pain thresholds were evaluated 2- and 4 hours after drug administration by assessment of mechanical- (von Frey) and thermal hypersensitivity (heat- and cold stimulation respectively). Decrease in ES-induced pain threshold was evaluated 22 hours following electrical stimulation of the depilated left cheek area (between the eye and ear ridge, this is a receptive field of trigeminal nerve) of each rat and was manifested as facial withdrawal following application of Von Frey filaments for mechanical allodynia and a heat lamp and acetone test for thermal hyperalgesia and allodynia respectively. […]

Structure (SMILES): COc1ncc(-c2cccc(-n3cnc4cc(C(C)(C)O)cnc43)c2)c(OC)n1 [Compound 1, 2-(3-(3-(2,4-dimethoxypyrimidin-5-yl)phenyl)-3H-imidazo[4,5-b]pyridin-6-yl)propan-2-ol]
- effect on established cold allodynia vs vehicle ([1]; acute 3 mg/kg po on day 9, p<0.001 and p<0.0001 post 2 and 4 hrs): reversed the mechanical allodynia
- effect on established cold allodynia vs vehicle ([1]; prophylactic 0.3 mg/kg po plus additional dose on day 9, p>0.05 post 2 hrs, p<0.01 post 4 hrs): reversed the cold allodynia dose dependently
- development of cold allodynia vs vehicle ([1]; prophylactic 1 mg/kg po once daily for 7 days, p<0.05 vs vehicle): significantly reduced the development of cold allodynia
- effect on established cold allodynia vs vehicle ([1]; prophylactic 1 mg/kg po plus additional dose on day 9, p<0.01 post 2 hrs, p<0.0001 post 4 hrs): reversed the cold allodynia dose dependently
- development of cold allodynia vs vehicle ([1]; prophylactic 3 mg/kg po once daily for 7 days, p<0.0001 vs vehicle): significantly reduced the development of cold allodynia
- effect on established cold allodynia vs vehicle ([1]; prophylactic 3 mg/kg po plus additional dose on day 9, p<0.0001 post 2 hrs and post 4 hrs): reversed the cold allodynia dose dependently
- analgesic effects (overall) [2]: significant analgesic effects in a dose dependent manner
